Data: patent publication US20070207975A1, “Materials and methods for treating and preventing Her-2/neu overexpressing, FAS-elevated cancer cells” (EVANSTON NORTHWESTERN HEALTHCARE, priority 2006, published 2007)

What was measured:
p185^Her-2/neu = assay: Flow cytometric analysis of cell surface-associated p185Her-2/neu; type: cell-based, human; conditions: scavenger of reactive oxygen species added to OA treatment
Text: FIG. 1. […] FIG. 2. […] The amount of cell surface-associated p185^Her-2/neu was quantified by flow cytometric analyses using a specific antibody against the extracellular domain of p185^Her-2/neu (Ab-5), as described herein. The mean fluorescence signal±SD (n=3) was quantified using the geo mean fluorescence (GM) parameter provided with the Cell Quest Software (Becton Dickinson). […] After labeling, cells were washed thoroughly, and localization of p185^Her-2/neu was detected by indirect immunofluorescence by incubating with FITC-conjugated anti-mouse IgG. After counterstaining with DAPI, cells were examined and photographed using a Zeiss fluorescent microscope equipped with a built-in camera. […] Before experiments, cells were serum-starved overnight and then cultured in IMEM containing 0.1% FBS in the absence or presence of GLA (Sigma Chemical Co., St. Louis, Mo.). GLA was prepared at a concentration of 1 mg/mL in ethanol and was added to a final concentration of 0, 5, 10, or 20 μg/mL; an equal volume of ethanol was added to control cells. […] A) Cell surface expression of Her-2/neu protein in BT-474 and SK-Br3 cells was determined by flow cytometry using a mouse anti-Her-2/neu antibody directed against the extracellular domain of the p185^Her-2/neu oncoprotein (clone Ab-5; Oncogene Research Products; San Diego, Calif.). Briefly, after GLA or control treatment, cells were washed, harvested, resuspended in phosphate-buffered saline (PBS) containing 1% FBS, and incubated with 5 μg/mL Ab-5 antibody for 1 hour at 4° C. The cells were washed again and then incubated with a fluorescein isothiocyanate (FITC)-conjugated anti-mouse IgG secondary antibody (Jackson ImnunoResearch Laboratories, West Grove, Pa.) diluted 1:200 in cold PBS containing 1% FBS for 45 minutes at 4° C. The cells were washed once more in cold PBS, and flow cytometric analysis was performed with a FACScalibur flow cytometer (Becton Dickinson, San Diego, Calif.) equipped with Cell Quest Software (Becton Dickinson). […] As a control for nonspecific immunofluorescence, cells were stained with the secondary antibody alone (solid black line). The mean fluorescence signal associated with cells for labeled p185^Her-2/neu was quantified using the Geo Mean (GM) fluorescence parameter provided with the software. […] B) Immunoblot analysis of Her-2/neu and PEA3 proteins in control- and GLA-treated BT-474 and SK-Br3 cells. […] Immunoreactive bands were detected by enhanced chemiluminescence reagent (Pierce, Rockford, Ill.). Blots were reprobed with an anti-β-actin goat polyclonal antibody (Santa Cruz Biotechnology) to control for protein loading and transfer. Densitometric values of protein bands were quantified using Scion Imaging Software (Scion Corp., Frederick, Md.).

Breast Cancer Cells = assay: Effect of fatty acids, breast cancer cells (Table 2); type: cell-based; conditions: FAS named only for oleic acid
Lipogenic Cells = assay: Effect of fatty acids, lipogenic cells (Table 2); type: cell-based

Compound | prevention of OA-induced suppression of Her-2/neu overexpression (p185^Her-2/neu) | Effect of Fatty Acids: Breast Cancer Cells (Breast Cancer Cells) | Effect of Fatty Acids: Lipogenic Cells (Lipogenic Cells)
Cc1c(C)c2c(c(C)c1O)CCC(C)(CCCC(C)CCCC(C)CCCC(C)C)O2 (racemic) [vitamin E, dl-α-tocopherol, reference compound] | not significantly prevented | – | –
CCC=CCC=CCC=CCCCCCCCC(=O)O [ω-3 Alpha-Linolenic acid, 9,12,15-octadecatrienoic acid] | – | Potent Down-regulator | No effect
CCC=CCC=CCC=CCC=CCC=CCC=CCCC(=O)O [ω-3 Docosahexaenoic acid, 4,7,10,13,16,19-docosahexaenoic acid, reference compound] | – | Weak Down-regulator | No effect
CCC=CCC=CCC=CCC=CCC=CCCCC(=O)O [ω-3 Eicosapentaenoic acid, 5,8,11,14,17-eicosapentaenoic acid, reference compound] | – | No effect | Down-regulator
CCCCCC=CCC=CCCCCCCCC(=O)O [ω-6 Linoleic acid, 9,12-octadecadienoic acid, reference compound] | – | No effect | Potent
